Data published in ChEMBL document CHEMBL1201862, “PubChem BioAssay data set” (2004).
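Compound exposure: 48 hours, 5 concentrations, 96-well plates. GI50 is the concentration that inhibits growth by half.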 The source made the active and inactive calls. Rule as the data show it: active = GI50 up to about 1.1 µM and inactive = higher.

Assays:
Experiment in all cases: NCI-60 cell line screen, 48 h
COLO 205 = tested on: COLO 205
SF-268 = tested on: SF-268
BT-549 = tested on: BT-549
SK-OV-3 = tested on: SK-OV-3
MOLT-4 = tested on: MOLT-4
NCI-H23 = tested on: NCI-H23
HT-29 = tested on: HT-29
RXF 393 = tested on: RXF 393
HCT-15 = tested on: HCT-15
HCC 2998 = tested on: HCC 2998
T47D = tested on: T47D
HL-60 = tested on: HL-60
KM12 = tested on: KM12
786-0 = tested on: 786-0
NCI/ADR-RES = tested on: NCI/ADR-RES
ACHN = tested on: ACHN
CCRF-CEM = tested on: CCRF-CEM
PC-3 = tested on: PC-3
SR = tested on: SR

## COc1cccc(/C=C2\S/C(=N/Nc3nc(C)c(C)s3)NC2=O)c1O
COLO 205
  GI50: > 100 µM (inactive)
SF-268
  GI50: > 100 µM (inactive)
BT-549
  GI50: > 100 µM (inactive)
SK-OV-3
  GI50: > 100 µM (inactive)
MOLT-4
  GI50: 49.3 µM (inactive)
NCI-H23
  GI50: > 100 µM (inactive)
HT-29
  GI50: > 100 µM (inactive)
RXF 393
  GI50: 79.4 µM (inactive)
HCT-15
  GI50: > 100 µM
HCC 2998
  GI50: 61.5 µM (inactive)
T47D
  GI50: 19 µM (inactive)
HL-60
  GI50: 56.1 µM (inactive)
KM12
  GI50: > 100 µM (inactive)
786-0
  GI50: > 100 µM (inactive)
NCI/ADR-RES
  GI50: > 100 µM (inactive)
ACHN
  GI50: > 100 µM (inactive)

## CS(=O)(=O)O.[Ag]
COLO 205
  GI50: 2.16 µM (inactive)
SF-268
  GI50: 16 µM (inactive)
BT-549
  GI50: 20.8 µM (inactive)
SK-OV-3
  GI50: 18.3 µM (inactive)
MOLT-4
  GI50: 2.32 µM (inactive)
NCI-H23
  GI50: 23.2 µM (inactive)
HT-29
  GI50: 19.3 µM (inactive)
RXF 393
  GI50: 18.8 µM (inactive)
HCT-15
  GI50: 18.7 µM
HCC 2998
  GI50: 14.2 µM (inactive)
T47D
  GI50: 2.15 µM (inactive)
CCRF-CEM
  GI50: 2.46 µM (inactive)
HL-60
  GI50: 2.79 µM (inactive)
KM12
  GI50: 29 µM (inactive)
786-0
  GI50: 16.3 µM (inactive)
PC-3
  GI50: 14.2 µM (inactive)
NCI/ADR-RES
  GI50: 29.8 µM (inactive)
ACHN
  GI50: 4.53 µM (inactive)

## COc1cc2nc3n(c(=O)c2cc1OC)-c1ccc([N+](=O)[O-])cc1C3=O
COLO 205
  GI50: > 100 µM (inactive)
SF-268
  GI50: > 100 µM (inactive)
BT-549
  GI50: > 100 µM (inactive)
SK-OV-3
  GI50: > 100 µM (inactive)
MOLT-4
  GI50: 27.3 µM (inactive)
NCI-H23
  GI50: 56.6 µM (inactive)
HT-29
  GI50: > 100 µM (inactive)
RXF 393
  GI50: 20.3 µM (inactive)
HCT-15
  GI50: 32.4 µM
HCC 2998
  GI50: > 100 µM (inactive)
T47D
  GI50: 0.891 µM (active)
KM12
  GI50: 80.2 µM (inactive)
786-0
  GI50: 56.8 µM (inactive)
PC-3
  GI50: 41.5 µM (inactive)
NCI/ADR-RES
  GI50: 89.5 µM (inactive)
ACHN
  GI50: 39.2 µM (inactive)

## CCCOc1ccc2sc(NC(=O)c3cc([N+](=O)[O-])cc([N+](=O)[O-])c3)nc2c1
COLO 205
  GI50: 54.1 µM (inactive)
SF-268
  GI50: 43.8 µM (inactive)
BT-549
  GI50: 47.8 µM (inactive)
SK-OV-3
  GI50: 36.5 µM (inactive)
MOLT-4
  GI50: 36.3 µM (inactive)
NCI-H23
  GI50: 23 µM (inactive)
HT-29
  GI50: 69.8 µM (inactive)
RXF 393
  GI50: 48.4 µM (inactive)
HCT-15
  GI50: 53.7 µM
T47D
  GI50: 53.2 µM (inactive)
CCRF-CEM
  GI50: 30.3 µM (inactive)
HL-60
  GI50: 67.3 µM (inactive)
KM12
  GI50: 26.8 µM (inactive)
786-0
  GI50: 52.2 µM (inactive)
PC-3
  GI50: 28.4 µM (inactive)
NCI/ADR-RES
  GI50: 22.6 µM (inactive)
ACHN
  GI50: 48.4 µM (inactive)

## COC(=O)c1c(C)cccc1/C=C1/Cc2c(C)cccc2C1=O
COLO 205
  GI50: > 10 µM (inactive)
SF-268
  GI50: > 100 µM (inactive)
BT-549
  GI50: 28.2 µM (inactive)
SK-OV-3
  GI50: > 100 µM (inactive)
MOLT-4
  GI50: > 100 µM (inactive)
NCI-H23
  GI50: > 100 µM (inactive)
HT-29
  GI50: > 100 µM (inactive)
RXF 393
  GI50: 25.4 µM (inactive)
HCT-15
  GI50: > 100 µM
HCC 2998
  GI50: > 100 µM (inactive)
T47D
  GI50: 50.8 µM (inactive)
HL-60
  GI50: > 100 µM (inactive)
KM12
  GI50: > 100 µM (inactive)
786-0
  GI50: 88.7 µM (inactive)
PC-3
  GI50: > 100 µM (inactive)
NCI/ADR-RES
  GI50: > 100 µM (inactive)
ACHN
  GI50: 86.7 µM (inactive)

## Cc1ccc(/N=N/c2c(O)c(C(=O)O)cc3ccccc23)cc1C
SR
  GI50: > 100 µM (inactive)
COLO 205
  GI50: > 100 µM (inactive)
SF-268
  GI50: > 100 µM (inactive)
BT-549
  GI50: > 100 µM (inactive)
SK-OV-3
  GI50: > 100 µM (inactive)
MOLT-4
  GI50: > 100 µM (inactive)
NCI-H23
  GI50: > 100 µM (inactive)
HT-29
  GI50: > 100 µM (inactive)
RXF 393
  GI50: > 100 µM (inactive)
HCT-15
  GI50: > 100 µM
HCC 2998
  GI50: > 100 µM (inactive)
CCRF-CEM
  GI50: > 100 µM (inactive)
HL-60
  GI50: 46.3 µM (inactive)
KM12
  GI50: > 100 µM (inactive)
786-0
  GI50: > 100 µM (inactive)
PC-3
  GI50: > 100 µM (inactive)
NCI/ADR-RES
  GI50: > 100 µM (inactive)
ACHN
  GI50: > 100 µM (inactive)

## Cc1nn(C(=O)Cc2ccccc2)c2c1C(c1ccc(Cl)cc1)SC(=N)N2 (stereo not drawn)
SR
  GI50: > 100 µM (inactive)
COLO 205
  GI50: > 100 µM (inactive)
SF-268
  GI50: > 100 µM (inactive)
BT-549
  GI50: > 100 µM (inactive)
SK-OV-3
  GI50: > 100 µM (inactive)
MOLT-4
  GI50: > 100 µM (inactive)
NCI-H23
  GI50: > 100 µM (inactive)
HT-29
  GI50: > 100 µM (inactive)
HCT-15
  GI50: > 100 µM
HCC 2998
  GI50: > 100 µM (inactive)
T47D
  GI50: > 100 µM (inactive)
CCRF-CEM
  GI50: > 100 µM (inactive)
HL-60
  GI50: > 100 µM (inactive)
KM12
  GI50: > 100 µM (inactive)
786-0
  GI50: > 100 µM (inactive)
PC-3
  GI50: > 100 µM (inactive)
ACHN
  GI50: > 100 µM (inactive)

## O=C(Cl)c1cc([N+](=O)[O-])cc([N+](=O)[O-])c1
SR
  GI50: > 100 µM (inactive)
COLO 205
  GI50: > 100 µM (inactive)
SF-268
  GI50: > 100 µM (inactive)
SK-OV-3
  GI50: > 100 µM (inactive)
MOLT-4
  GI50: > 100 µM (inactive)
NCI-H23
  GI50: > 100 µM (inactive)
HT-29
  GI50: > 100 µM (inactive)
HCT-15
  GI50: > 100 µM
HCC 2998
  GI50: > 100 µM (inactive)
CCRF-CEM
  GI50: > 100 µM (inactive)
HL-60
  GI50: > 100 µM (inactive)
KM12
  GI50: > 100 µM (inactive)
786-0
  GI50: > 100 µM (inactive)
ACHN
  GI50: > 100 µM (inactive)
